# From US20170190671A1, “BIS(ARYL)CATECHOL DERIVATIVES AS HERBICIDES” (E I DU PONT DE NEMOURS AND COMPANY, priority 2014, published 2017)
# Key:
# Experiment in all cases: Test E preemergence
# Format in all cases: in vivo
# Conditions in all cases: scale 0 to 100
# [1] = tested on: ragweed (common ragweed, Ambrosia elatior)
# Method in brief: (§1)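 Test chemicals, formulated in a non-phytotoxic solvent with surfactant, are applied to silt loam soil after sowing or sprayed over young plants (1–4 leaves) in potting medium. Plants are then kept in a greenhouse for 14 to 21 days and scored 0–100 for control.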
# [2] = tested on: velvetleaf (Abutilon theophrasti)
# Method in brief: as §1
# [3] = tested on: fall panicum (Panicum dichotomiflorum)
# Method in brief: as §1
# [4] = tested on: morningglory (Ipomoea coccinea)
# Method in brief: as §1
# [5] = tested on: large (Lg) crabgrass (Digitaria sanguinalis)
# Method in brief: as §1
# [6] = tested on: yellow nutsedge (Cyperus esculentus)
# Method in brief: as §1
# [7] = tested on: goosegrass (Eleusine indica)
# Method in brief: as §1
# [8] = tested on: giant foxtail (Setaria faberii)
# Method in brief: as §1
# [9] = tested on: nightshade (eastern black nightshade, Solanum ptycanthum)
# Method in brief: as §1
# kochia (Kochia scoparia) = tested on: kochia (Kochia scoparia)
# Method in brief: as §1
# [10] = tested on: field bindweed (Convolvulus arvensis)
# Method in brief: as §1
# [11] = tested on: dayflower (Virginia (VA) dayflower, Commelina virginica)
# Method in brief: as §1
# [12] = tested on: palmer pigweed (Amaranthus palmeri)
# Method in brief: as §1
# [13] = tested on: waterhemp (common waterhemp, Amaranthus rudis)
# Method in brief: as §1
# [14] = tested on: Surinam grass (Brachiaria decumbens)
# Method in brief: as §1
# [15] = tested on: Brazilian crabgrass (Digitaria horizontalis)
# Method in brief: as §1
# [16] = tested on: barnyardgrass (Echinochloa crus-galli)
# Method in brief: as §1
# [17] = tested on: lambsquarters (Chenopodium album)
# Method in brief: as §1
# [18] = tested on: Italian ryegrass (Lolium multiflorum)
# Method in brief: as §1
# [19] = tested on: green foxtail (Setaria viridis)
# Method in brief: as §1
# [20] = tested on: hairy beggarticks (Bidens pilosa)
# Method in brief: as §1
compound,measurement,setting,value
"Clc1cnc(Oc2cccc(Br)c2Oc2ncc(Cl)cn2)nc1 [Compound 19, 2,2′-[[3-bromo-1,2-phenylene]bis(oxy)]bis[5-chloropyrimidine]]","Plant response rating, Ragweed",[1]; 16 g ai/ha,0
same,"Plant response rating, Ragweed",[1]; 31 g ai/ha,0
same,"Plant response rating, Ragweed",[1]; 62 g ai/ha,10
same,"Plant response rating, Ragweed",[1]; 125 g ai/ha,50
same,"Plant response rating, Velvetleaf",[2]; 16 g ai/ha,0
same,"Plant response rating, Velvetleaf",[2]; 31 g ai/ha,0
same,"Plant response rating, Velvetleaf",[2]; 62 g ai/ha,50
same,"Plant response rating, Velvetleaf",[2]; 125 g ai/ha,100
same,"Plant response rating, Panicum, Fall",[3]; 16 g ai/ha,100
same,"Plant response rating, Panicum, Fall",[3]; 31 g ai/ha,85
same,"Plant response rating, Panicum, Fall",[3]; 62 g ai/ha,98
same,"Plant response rating, Panicum, Fall",[3]; 125 g ai/ha,100
same,"Plant response rating, Morningglory",[4]; 16 g ai/ha,0
same,"Plant response rating, Morningglory",[4]; 31 g ai/ha,0
same,"Plant response rating, Morningglory",[4]; 62 g ai/ha,5
same,"Plant response rating, Morningglory",[4]; 125 g ai/ha,65
same,"Plant response rating, Crabgrass, Large",[5]; 16 g ai/ha,20
same,"Plant response rating, Crabgrass, Large",[5]; 31 g ai/ha,80
same,"Plant response rating, Crabgrass, Large",[5]; 62 g ai/ha,100
same,"Plant response rating, Crabgrass, Large",[5]; 125 g ai/ha,100
same,"Plant response rating, Nutsedge, Yellow",[6]; 16 g ai/ha,0
same,"Plant response rating, Nutsedge, Yellow",[6]; 31 g ai/ha,0
same,"Plant response rating, Nutsedge, Yellow",[6]; 62 g ai/ha,0
same,"Plant response rating, Nutsedge, Yellow",[6]; 125 g ai/ha,20
same,"Plant response rating, Goosegrass",[7]; 16 g ai/ha,5
same,"Plant response rating, Goosegrass",[7]; 31 g ai/ha,75
same,"Plant response rating, Goosegrass",[7]; 62 g ai/ha,90
same,"Plant response rating, Goosegrass",[7]; 125 g ai/ha,98
same,"Plant response rating, Foxtail, Giant",[8]; 16 g ai/ha,0
same,"Plant response rating, Foxtail, Giant",[8]; 31 g ai/ha,95
same,"Plant response rating, Foxtail, Giant",[8]; 62 g ai/ha,100
same,"Plant response rating, Foxtail, Giant",[8]; 125 g ai/ha,100
same,"Plant response rating, Nightshade",[9]; 16 g ai/ha,0
same,"Plant response rating, Nightshade",[9]; 31 g ai/ha,0
same,"Plant response rating, Nightshade",[9]; 62 g ai/ha,65
same,"Plant response rating, Nightshade",[9]; 125 g ai/ha,98
same,"Plant response rating, Kochia",kochia (Kochia scoparia); 16 g ai/ha,35
same,"Plant response rating, Kochia",kochia (Kochia scoparia); 31 g ai/ha,75
same,"Plant response rating, Kochia",kochia (Kochia scoparia); 62 g ai/ha,98
same,"Plant response rating, Kochia",kochia (Kochia scoparia); 125 g ai/ha,100
same,"Plant response rating, Field Bindweed",[10]; 16 g ai/ha,0
same,"Plant response rating, Field Bindweed",[10]; 31 g ai/ha,0
same,"Plant response rating, Field Bindweed",[10]; 62 g ai/ha,0
same,"Plant response rating, Field Bindweed",[10]; 125 g ai/ha,10
same,"Plant response rating, Dayflower, VA",[11]; 16 g ai/ha,0
same,"Plant response rating, Dayflower, VA",[11]; 31 g ai/ha,0
same,"Plant response rating, Dayflower, VA",[11]; 62 g ai/ha,5
same,"Plant response rating, Dayflower, VA",[11]; 125 g ai/ha,10
same,"Plant response rating, Pigweed, Palmer",[12]; 16 g ai/ha,0
same,"Plant response rating, Pigweed, Palmer",[12]; 31 g ai/ha,70
same,"Plant response rating, Pigweed, Palmer",[12]; 62 g ai/ha,100
same,"Plant response rating, Pigweed, Palmer",[12]; 125 g ai/ha,100
same,"Plant response rating, Waterhemp",[13]; 16 g ai/ha,65
same,"Plant response rating, Waterhemp",[13]; 31 g ai/ha,65
same,"Plant response rating, Waterhemp",[13]; 62 g ai/ha,100
same,"Plant response rating, Waterhemp",[13]; 125 g ai/ha,100
same,"Plant response rating, Surinam Grass",[14]; 16 g ai/ha,0
same,"Plant response rating, Surinam Grass",[14]; 31 g ai/ha,0
same,"Plant response rating, Surinam Grass",[14]; 62 g ai/ha,10
same,"Plant response rating, Surinam Grass",[14]; 125 g ai/ha,10
same,"Plant response rating, Crabgrass, Brazil",[15]; 16 g ai/ha,0
same,"Plant response rating, Crabgrass, Brazil",[15]; 31 g ai/ha,40
same,"Plant response rating, Crabgrass, Brazil",[15]; 62 g ai/ha,100
same,"Plant response rating, Crabgrass, Brazil",[15]; 125 g ai/ha,100
same,"Plant response rating, Barnyardgrass",[16]; 16 g ai/ha,0
same,"Plant response rating, Barnyardgrass",[16]; 31 g ai/ha,0
same,"Plant response rating, Barnyardgrass",[16]; 62 g ai/ha,20
same,"Plant response rating, Barnyardgrass",[16]; 125 g ai/ha,70
same,"Plant response rating, Lambsquarters",[17]; 16 g ai/ha,60
same,"Plant response rating, Lambsquarters",[17]; 31 g ai/ha,100
same,"Plant response rating, Lambsquarters",[17]; 62 g ai/ha,100
same,"Plant response rating, Lambsquarters",[17]; 125 g ai/ha,100
same,"Plant response rating, Ryegrass, Italian",[18]; 16 g ai/ha,0
same,"Plant response rating, Ryegrass, Italian",[18]; 31 g ai/ha,0
same,"Plant response rating, Ryegrass, Italian",[18]; 62 g ai/ha,65
same,"Plant response rating, Ryegrass, Italian",[18]; 125 g ai/ha,70
same,"Plant response rating, Foxtail, Green",[19]; 16 g ai/ha,0
same,"Plant response rating, Foxtail, Green",[19]; 31 g ai/ha,60
same,"Plant response rating, Foxtail, Green",[19]; 62 g ai/ha,98
same,"Plant response rating, Foxtail, Green",[19]; 125 g ai/ha,100
same,"Plant response rating, Beggarticks",[20]; 16 g ai/ha,0
same,"Plant response rating, Beggarticks",[20]; 31 g ai/ha,0
same,"Plant response rating, Beggarticks",[20]; 62 g ai/ha,0
same,"Plant response rating, Beggarticks",[20]; 125 g ai/ha,0
